Assay results reported in US11938122B2, “5-[[4-[2-[5-(1-hydroxyethyl)pyridin-2-yl]ethoxy]phenyl]methyl]-1,3- thiazolidine-2,4-dione for treating nonalcoholic fatty liver disease” (Minoryx Therapeutics S.L., priority 2016, dated 2024).

Assays:
CYP2B6 [1] = molecular target: T1, CYP2B6 (Homo sapiens, UniProt P20813); assay: CYP inhibition, cocktail incubation, pooled human liver microsomes; assay type: in vitro ADME; conditions: reaction OH-BUP
T1 construct: in incubations with a pool of human liver microsomes; from tissue; host or cells: pooled human liver microsomes
T1 sequence (P20813 1-491): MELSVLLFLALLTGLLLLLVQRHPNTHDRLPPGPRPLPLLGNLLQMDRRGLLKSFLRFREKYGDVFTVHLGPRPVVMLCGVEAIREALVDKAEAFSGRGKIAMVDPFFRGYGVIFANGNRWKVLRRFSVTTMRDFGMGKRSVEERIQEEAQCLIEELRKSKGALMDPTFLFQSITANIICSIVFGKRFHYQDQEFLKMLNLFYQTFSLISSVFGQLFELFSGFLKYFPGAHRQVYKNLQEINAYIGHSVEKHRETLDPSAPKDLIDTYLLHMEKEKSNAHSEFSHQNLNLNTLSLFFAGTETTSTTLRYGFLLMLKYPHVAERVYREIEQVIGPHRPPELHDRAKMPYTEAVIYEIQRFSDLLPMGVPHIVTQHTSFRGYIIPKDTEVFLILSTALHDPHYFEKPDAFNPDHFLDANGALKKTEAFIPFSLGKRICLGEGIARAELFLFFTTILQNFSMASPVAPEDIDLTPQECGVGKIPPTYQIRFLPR
Protocol: (§1) Inhibition was screened using a cocktail incubation with CYP specific substrates for eight major drug metabolizing CYP enzymes (CYPs 1A2, 2A6, 2B6, 2C8, 2C9, 2C19, 2D6 and 3A4) in incubations with a pool of human liver microsomes. In reversible inhibition, MIN-102 was incubated with buffer, microsomes, cofactor NADPH and CYP-specific substrate cocktail mix for 15 min. In TDI study, buffer and microsomes were preincubated with MIN-102 in the presence and absence of cofactor NADPH for 0 or 30 min to elucidate the possible time-dependency of inhibition. Secondary incubation was conducted with CYP-specific substrate cocktail mix for 30 min. MIN-102 was used at final concentrations of 0.01, 0.1, 1, 10, and 100 μM in both assays.

CYP2C19 = molecular target: T2, CYP2C19 (Homo sapiens, UniProt P33261); assay: as above; assay type: in vitro ADME
T2 construct: in incubations with a pool of human liver microsomes; from tissue; host or cells: pooled human liver microsomes
Protocol: as §1

CYP3A4 = molecular target: T3, CYP3A4 (Homo sapiens, UniProt P08684); assay: as above; assay type: in vitro ADME
T3 construct: in incubations with a pool of human liver microsomes; from tissue; host or cells: pooled human liver microsomes
Protocol: as §1

CYP1A2 = assay: CYP induction in cryopreserved human hepatocytes; assay type: in vitro ADME; conditions: 50 μM, hepatocytes from 3 human donors
CYP2B6 [2] = assay: CYP induction in cryopreserved human hepatocytes; assay type: in vitro ADME; conditions: 50 μM, hepatocytes from 3 human donors
[3] = test system: MCD diet NASH mouse model; assay: Methionine Choline Deficient (MCD) diet NASH mouse model; assay type: in vivo; conditions: 62.5 mg/kg BID oral, 7 weeks
Text: According to one NASH model in mice (See Verdelho Machado et al., PlosOne May 27:10(5):e0127991 (2015)), male C57BL/6 inbred mice, aged 8 weeks, were obtained from Charles River, France. During the acclimation phase, standard (control chow) diet (RM1 (E) 801492, SDS) and tap water was provided ad libitum. Mice were then fed a Methionine Choline Deficient (MCD) diet (ref #A02082002B from Research Diets, USA) supplemented without or with the test item, provided ad libitum. All procedures were performed in accordance with the Guide for the Care and Use of Laboratory Animals (revised 1996 and 2011, 2010/63/EU) and French laws. 20 animals were housed in ventilated and enriched housing cages (310×125×127 mm^3) throughout the experimental phase. Animals' cages litters were changed at least once a week. They were housed in groups of 10 animals during the whole study, on a normal 12 hours light cycle (at 08:00 pm lights off), 22±2° C. and 50±10% relative humidity.
After the acclimation period, mice (n=20) were weighed and randomized into 2 homogenous treatment groups based on body weight (n=10/group), put on a MCD diet, and treated BID orally with vehicle or MIN-102 for 7 weeks. Body weight was measured 3 times/week until the end of the experimental phase. At 7 weeks of diet/treatment, mice were weighed and treated at ˜08:00 am in the morning, then bled (maximal volume/EDTA) at ˜1:00 pm. Plasma was then immediately isolated and stored at […] prior to assay plasma ALT and AST. The plasma volume left over was stored at […] for eventual additional analysis.
After blood collection, mice were sacrificed by cervical dislocation under isoflurane anesthesia and exsanguinated with sterile saline. Liver was collected and weighted. A ˜20 mg liver sample (weight recorded) was dissected for hepatic total cholesterol and triglycerides levels. A 0.5 cm^3 liver sample was frozen in isopentane for oil red O staining. […]
A NAFLD scoring system (NAS) adapted from Kleiner et al. (Hepatology. 41(6):1313-1321 (2005)) was used. An individual mouse NAS total score was calculated for each animal by summing up the score for (1) hepatocellular steatosis, (2) liver inflammation, (3) lobular fibrosis, and (4) hepatocyte ballooning. […]
Data are expressed as mean±SEM. […]
The preventive effects of MIN-102 was evaluated in a 7-week Methionine Choline Deficient (MCD) diet NASH mouse model (Verdelho Machado et al.). […]
After the acclimation period, C57BL6/J male mice (n=20) were weighed and randomized into 2 homogenous treatment groups based on body weight (n=10/group), put on a MCD diet, and treated BID orally with a vehicle or MIN-102 (125 mg/Kg/day) for 7 weeks. Body weight was measured 3 times/week until the end of the experimental phase. […]

T3 sequence (P08684 whole entry): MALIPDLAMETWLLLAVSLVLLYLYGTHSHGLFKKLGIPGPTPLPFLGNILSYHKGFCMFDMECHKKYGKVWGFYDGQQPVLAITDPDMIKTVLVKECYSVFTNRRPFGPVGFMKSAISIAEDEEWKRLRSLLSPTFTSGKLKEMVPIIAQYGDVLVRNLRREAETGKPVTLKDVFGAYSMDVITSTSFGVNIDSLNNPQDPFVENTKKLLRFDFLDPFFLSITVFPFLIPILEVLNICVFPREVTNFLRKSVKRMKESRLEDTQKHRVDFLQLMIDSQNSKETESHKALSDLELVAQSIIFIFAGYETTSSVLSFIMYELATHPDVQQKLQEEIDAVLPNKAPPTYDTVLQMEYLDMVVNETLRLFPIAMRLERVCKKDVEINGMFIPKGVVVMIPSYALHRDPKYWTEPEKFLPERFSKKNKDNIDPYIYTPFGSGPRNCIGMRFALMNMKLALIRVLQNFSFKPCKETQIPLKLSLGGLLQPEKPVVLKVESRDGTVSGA
T2 sequence (P33261 whole entry): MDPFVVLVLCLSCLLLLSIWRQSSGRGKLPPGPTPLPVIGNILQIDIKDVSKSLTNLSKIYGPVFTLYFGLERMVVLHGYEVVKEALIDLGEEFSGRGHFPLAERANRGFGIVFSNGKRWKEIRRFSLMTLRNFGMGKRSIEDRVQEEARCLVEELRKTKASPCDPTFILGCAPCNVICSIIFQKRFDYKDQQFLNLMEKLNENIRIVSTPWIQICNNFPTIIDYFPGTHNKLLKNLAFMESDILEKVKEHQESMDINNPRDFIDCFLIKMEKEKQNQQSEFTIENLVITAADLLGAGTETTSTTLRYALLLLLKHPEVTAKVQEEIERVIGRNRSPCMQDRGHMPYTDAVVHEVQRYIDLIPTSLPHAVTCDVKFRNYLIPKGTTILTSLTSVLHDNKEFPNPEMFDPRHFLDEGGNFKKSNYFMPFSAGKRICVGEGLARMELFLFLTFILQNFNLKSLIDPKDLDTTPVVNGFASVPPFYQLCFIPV

For CC(O)c1ccc(CCOc2ccc(CC3SC(=O)NC3=O)cc2)nc1 (racemic) [MIN-102, 5-[[4-[2-[5-(1-hydroxyethyl)pyridin-2-yl]ethoxy]phenyl]methyl]-1,3-thiazolidine-2,4-dione], the IC50 (CYP2B6 [1]) was greater than 100 µM, the IC50 (CYP2C19; reaction 5-OH-OME) was greater than 100 µM and the IC50 (CYP2C19; reaction dem-OME) was greater than 100 µM. For the same compound, the IC50 (CYP3A4; reaction 1-OH-MDZ) was greater than 100 µM, the IC50 (CYP3A4; reaction 3-OH-OME) was greater than 100 µM and the IC50 (CYP3A4; reaction 6β-OH-TES) was greater than 100 µM. For the same compound, the IC50 (CYP3A4; reaction SO-OME) was greater than 100 µM, the “increase in activity of CYP1A2 probe reaction” value (CYP1A2) was “less than 20 % of the respective positive control induction” and the “increase in activity of CYP2B6 probe reaction” value (CYP2B6 [2]) was “less than 20 % of the respective positive control induction”. For the same compound, the “Mean NAS group score” value ([3]; mean±SEM) was 0.44±01, the “reduction in hepatic triglycerides levels” value ([3]; vs vehicle) was 92% and the “reduction of plasma ALT level” value ([3]; vs vehicle) was 78%. The “reduction of plasma AST level” value ([3]; vs vehicle) was 55%.
